Source: patent US20240002391A1, “4-ALKOXYPYRROLO[2,1-F][1,2,4]TRIAZINES AND PREPARATION AND USES THEREOF” (BioSplice Therapeutics, Inc., priority 2022, published 2024)

Target: recombinant DYRK1A kinase (Homo sapiens (Human), UniProt Q13627)
Experiment: DYRK1A kinase assay (Ser/Thr 18 peptide Z-lyte FRET)
Assay type: biochemical
Conditions: DYRK1A kinase activity, Z-lyte Ser/Thr 18 peptide, 15 μM ATP; method text calls the value IC50; read-out: EC50 (the source's name)
Description: Representative compounds were screened using the assay procedure for DYRK1A kinase activity as described below.
Each compound was dissolved in DMSO as a 10 mM stock and used to prepare compound source plates. Serial dilution (1:3, 11-point dose-response curves from 10 μM to 0.00016 μM) and compound transfer was performed using the ECHO 550 (Labcyte, Sunnyvale, CA) into 1536-well black-walled round bottom plates (Coming).
The DYRK1A kinase assay was run using the Ser/Thr 18 peptide Z-lyte assay kit according to manufacturer's instructions (Life Technologies-a Division of Thermo-Fisher). This is a non-radioactive assay using fluorescence resonance energy transfer (FRET) between coumarin and fluorescein to detect kinase activity which is represented as a ratio of coumarin emission/fluorescein emission.
Briefly, recombinant DYRK1A kinase, ATP and Ser/Thr peptide 18 were prepared in 1X Kinase buffer to final concentrations of 0.25 μg/mL, 15 μM, and 4 μM respectively. The mixture was allowed to incubate with the representative compounds for one hour at room temperature. All reactions were performed in duplicate. Unphosphorylated (“0% Control”) and phosphorylated (“100% control”) forms of Ser/Thr 18 served as control reactions. Additionally, an 11-point dose-response curve of Staurosporine (luM top) was run to serve as a positive compound control.
After incubation, Development Reagent A was diluted in Development Buffer then added to the reaction and allowed to further incubate for one hour at room temperature. The plate was read at Ex 400 Em 455 to detect the coumarin signal and Ex 400 Em 520 to measure the signal (EnVision Multilabel Plate Reader, PerkinElmer).
The Emission ratio (Em) was calculated as a ratio of the coumarin (C) emission signal (at 445 nm)/Fluorescein (F) emission signal (at 520 nm). The percent phosphorylation was then calculated using the following formula: [1−((Em ratio X F100%)-C100%)/((C0%-C100%) +(Em ratio X (F100%−F0%)))]. Dose-response curves were generated, and inhibitory concentration (IC50) values were calculated using non-linear regression curve fit in the Dotmatics' Studies Software (Bishops Stortford, UK).

Row | SMILES | IC50 [nM]
1 | COc1nc(N[C@H]2CC[C@@](C)(O)CC2)nn2ccc(-c3cnc4nccn4c3)c12 [Compound 4, cis-4-((5-(Imidazo[1,2-a]pyrimidin-6-yl)-4-methoxypyrrolo[2,1-f][1,2,4]triazin-2-yl)amino)-1-methylcyclohexan-1-ol] | 1.1
2 | COc1nc(N[C@H]2C[C@@H](OCCO)C2)nn2ccc(-c3ccn4nccc4c3)c12 [Compound 6, 2-(cis-3-((4-Methoxy-5-(pyrazolo[1,5-a]pyridin-5-yl)pyrrolo[2,1-f][1,2,4]triazin-2-yl)amino)cyclobutoxy)ethan-1-ol] | 1.1
3 | COc1nc(N[C@H]2C[C@@](C)(O)C2)nn2ccc(-c3ccn4nccc4c3)c12 [Compound 7, cis-3-((4-Methoxy-5-(pyrazolo[1,5-a]pyridin-5-yl)pyrrolo[2,1-f][1,2,4]triazin-2-yl)amino)-1-methylcyclobutan-1-ol] | 4.6
4 | COc1nc(N[C@H]2C[C@](C)(O)C2)nn2ccc(-c3ccn4nccc4c3)c12 [Compound 8, trans-3-((4-Methoxy-5-(pyrazolo[1,5-a]pyridin-5-yl)pyrrolo[2,1-f][1,2,4]triazin-2-yl)amino)-1-methylcyclobutan-1-ol] | 0.6
5 | COc1nc(N[C@H]2CC[C@@H](OC)CC2)nn2ccc(-c3ccn4nccc4c3)c12 [Compound 9, 4-Methoxy-N-(cis-4-methoxycyclohexyl)-5-(pyrazolo[1,5-a]pyridin-5-yl)pyrrolo[2,1-f][1,2,4]triazin-2-amine] | 9960
6 | COc1nc(N[C@H]2CC[C@H](OC)CC2)nn2ccc(-c3ccn4nccc4c3)c12 [Compound 10, 4-Methoxy-N-(trans-4-methoxycyclohexyl)-5-(pyrazolo[1,5-a]pyridin-5-yl)pyrrolo[2,1-f][1,2,4]triazin-2-amine] | 93.8
7 | COc1nc(N[C@H]2CC[C@@H](OCCO)CC2)nn2ccc(-c3ccn4nccc4c3)c12 [Compound 13, 2-((cis-4-((4-Methoxy-5-(pyrazolo[1,5-a]pyridin-5-yl)pyrrolo[2,1-f][1,2,4]triazin-2-yl)amino)cyclohexyl)oxy)ethan-1-ol] | 5.5
8 | COCCO[C@H]1CC[C@@H](Nc2nc(OC)c3c(-c4ccn5nccc5c4)ccn3n2)CC1 [Compound 15, 4-Methoxy-N-(cis-4-(2-methoxyethoxy)cyclohexyl)-5-(pyrazolo[1,5-a]pyridin-5-yl)pyrrolo[2,1-f][1,2,4]triazin-2-amine] | 33.7
9 | COCCO[C@H]1CC[C@H](Nc2nc(OC)c3c(-c4ccn5nccc5c4)ccn3n2)CC1 [Compound 16, 4-Methoxy-N-(trans-4-(2-methoxyethoxy)cyclohexyl)-5-(pyrazolo[1,5-a]pyridin-5-yl)pyrrolo[2,1-f][1,2,4]triazin-2-amine] | 34.4
10 | COc1nc(N[C@H]2CC[C@@H](NC(C)=O)CC2)nn2ccc(-c3ccn4nccc4c3)c12 [Compound 17, N-(cis-4-((4-methoxy-5-(pyrazolo[1,5-a]pyridin-5-yl)pyrrolo[2,1-f][1,2,4]triazin-2-yl)amino)cyclohexyl)acetamide] | 17.5
11 | COc1nc(N[C@H]2CC[C@H](NC(C)=O)CC2)nn2ccc(-c3ccn4nccc4c3)c12 [Compound 18, N-(trans-4-((4-Methoxy-5-(pyrazolo[1,5-a]pyridin-5-yl)pyrrolo[2,1-f][1,2,4]triazin-2-yl)amino)cyclohexyl)acetamide] | 7.4
12 | COc1nc(N[C@H]2CC[C@@](C)(O)CC2)nn2ccc(-c3ccn4nccc4c3)c12 [Compound 19, cis-4-((4-Methoxy-5-(pyrazolo[1,5-a]pyridin-5-yl)pyrrolo[2,1-f][1,2,4]triazin-2-yl)amino)-1-methylcyclohexan-1-ol] | 14.1
13 | COc1nc(NC2CCN(CCF)CC2)nn2ccc(-c3ccn4nccc4c3)c12 [Compound 24, N-(1-(2-Fluoroethyl)piperidin-4-yl)-4-methoxy-5-(pyrazolo[1,5-a]pyridin-5-yl)pyrrolo[2,1-f][1,2,4]triazin-2-amine] | 14.3
14 | COc1nc(NC2CCN(C3COC3)CC2)nn2ccc(-c3ccn4nccc4c3)c12 [Compound 26, 4-Methoxy-N-(1-(oxetan-3-yl)piperidin-4-yl)-5-(pyrazolo[1,5-a]pyridin-5-yl)pyrrolo[2,1-f][1,2,4]triazin-2-amine] | 7.1
15 | COc1nc(NC2CCN(C(C)=O)CC2)nn2ccc(-c3ccn4nccc4c3)c12 [Compound 27, 1-(4-((4-Methoxy-5-(pyrazolo[1,5-a]pyridin-5-yl)pyrrolo[2,1-f][1,2,4]triazin-2-yl)amino)piperidin-1-yl)ethan-1-one] | 9960
16 | COc1nc(N[C@@H]2CCNC[C@@H]2F)nn2ccc(-c3ccn4nccc4c3)c12 [Compound 29] | 9.2
17 | COc1nc(N[C@H]2CCNC[C@H]2F)nn2ccc(-c3ccn4nccc4c3)c12 [Compound 30, N-((3R,4S)-3-Fluoropiperidin-4-yl)-4-methoxy-5-(pyrazolo[1,5-a]pyridin-5-yl)pyrrolo[2,1-f][1,2,4]triazin-2-amine] | 22.1
18 | COc1nc(N[C@@H]2CCN(C)C[C@@H]2F)nn2ccc(-c3ccn4nccc4c3)c12 [Compound 31, N-((3S,4R)-3-fluoro-1-methylpiperidin-4-yl)-4-methoxy-5-(pyrazolo[1,5-a]pyridin-5-yl)pyrrolo[2,1-f][1,2,4]triazin-2-amine] | 7.7
19 | COc1nc(N[C@H]2CCN(C)C[C@H]2F)nn2ccc(-c3ccn4nccc4c3)c12 [Compound 34, N-((3R,4S)-3-Fluoro-1-methylpiperidin-4-yl)-4-methoxy-5-(pyrazolo[1,5-a]pyridin-5-yl)pyrrolo[2,1-f][1,2,4]triazin-2-amine] | 6.2
20 | COc1nc(NC2CCOCC2)nn2ccc(-c3ccn4nccc4c3)c12 [Compound 36, 4-Methoxy-5-(pyrazolo[1,5-a]pyridin-5-yl)-N-(tetrahydro-2H-pyran-4-yl)pyrrolo[2,1-f][1,2,4]triazin-2-amine] | 12.1
21 | COc1nc(NC2CC3(C2)CN(C(C)=O)C3)nn2ccc(-c3ccn4nccc4c3)c12 [Compound 37, 1-(6-((4-Methoxy-5-(pyrazolo[1,5-a]pyridin-5-yl)pyrrolo[2,1-f][1,2,4]triazin-2-yl)amino)-2-azaspiro[3.3]heptan-2-yl)ethan-1-one] | 2.5
22 | COc1nc(NC2CC3(CCN(C(C)=O)CC3)C2)nn2ccc(-c3ccn4nccc4c3)c12 [Compound 39, 1-(2-((4-Methoxy-5-(pyrazolo[1,5-a]pyridin-5-yl)pyrrolo[2,1-f][1,2,4]triazin-2-yl)amino)-7-azaspiro[3.5]nonan-7-yl)ethan-1-one] | 2.9
23 | COc1nc(NC2CCC3(CC2)CN(C(C)=O)C3)nn2ccc(-c3ccn4nccc4c3)c12 [Compound 40, 1-(7-((4-Methoxy-5-(pyrazolo[1,5-a]pyridin-5-yl)pyrrolo[2,1-f][1,2,4]triazin-2-yl)amino)-2-azaspiro[3.5]nonan-2-yl)ethan-1-one] | 1.6
24 | COc1nc(N[C@H]2CC[C@@H](OC)CC2)nn2ccc(-c3ccc4nccn4c3)c12 [Compound 45, 5-(Imidazo[1,2-a]pyridin-6-yl)-4-methoxy-N-(cis-4-methoxycyclohexyl)pyrrolo[2,1-f][1,2,4]triazin-2-amine] | 9.3
25 | COc1nc(N[C@H]2CC[C@@H](OCCO)CC2)nn2ccc(-c3ccc4nccn4c3)c12 [Compound 49, 2-((cis-4-((5-(Imidazo[1,2-a]pyridin-6-yl)-4-methoxypyrrolo[2,1-f][1,2,4]triazin-2-yl)amino)cyclohexyl)oxy)ethan-1-ol] | 2.6
26 | COCCO[C@H]1CC[C@@H](Nc2nc(OC)c3c(-c4ccc5nccn5c4)ccn3n2)CC1 [Compound 51, 5-(Imidazo[1,2-a]pyridin-6-yl)-4-methoxy-N-(cis-4-(2-methoxyethoxy)cyclohexyl)pyrrolo[2,1-f][1,2,4]triazin-2-amine] | 6.7
27 | COCCO[C@H]1CC[C@H](Nc2nc(OC)c3c(-c4ccc5nccn5c4)ccn3n2)CC1 [Compound 52, 5-(Imidazo[1,2-a]pyridin-6-yl)-4-methoxy-N-(trans-4-(2-methoxyethoxy)cyclohexyl)pyrrolo[2,1-f][1,2,4]triazin-2-amine] | 5.2
28 | COc1nc(N[C@H]2CC[C@@H](NC(C)=O)CC2)nn2ccc(-c3ccc4nccn4c3)c12 [Compound 53, N-(cis-4-((5-(Imidazo[1,2-a]pyridin-6-yl)-4-methoxypyrrolo[2,1-f][1,2,4]triazin-2-yl)amino)cyclohexyl)acetamide] | 0.7
29 | COc1nc(N[C@H]2CC[C@@](C)(O)CC2)nn2ccc(-c3ccc4nccn4c3)c12 [Compound 55, cis-4-((5-(Imidazo[1,2-a]pyridin-6-yl)-4-methoxypyrrolo[2,1-f][1,2,4]triazin-2-yl)amino)-1-methylcyclohexan-1-ol] | 6.7
